Key:
[1] = target: T1, FLT3 kinase (Homo sapiens, UniProt P36888); test: Biochemical enzyme inhibition assay (microfluidics, Caliper EZ Reader II), FLT3; details: for IC50: in vitro kinase assay, 60 min pre-incubation, ATP 190 µM, three independent experiments, read-out: FLT3 IC50 (nM) ± SD; for LE: ligand efficiency for FLT3 inhibition
T1 construct: purchased Invitrogen
T1 sequence (P36888 27-993): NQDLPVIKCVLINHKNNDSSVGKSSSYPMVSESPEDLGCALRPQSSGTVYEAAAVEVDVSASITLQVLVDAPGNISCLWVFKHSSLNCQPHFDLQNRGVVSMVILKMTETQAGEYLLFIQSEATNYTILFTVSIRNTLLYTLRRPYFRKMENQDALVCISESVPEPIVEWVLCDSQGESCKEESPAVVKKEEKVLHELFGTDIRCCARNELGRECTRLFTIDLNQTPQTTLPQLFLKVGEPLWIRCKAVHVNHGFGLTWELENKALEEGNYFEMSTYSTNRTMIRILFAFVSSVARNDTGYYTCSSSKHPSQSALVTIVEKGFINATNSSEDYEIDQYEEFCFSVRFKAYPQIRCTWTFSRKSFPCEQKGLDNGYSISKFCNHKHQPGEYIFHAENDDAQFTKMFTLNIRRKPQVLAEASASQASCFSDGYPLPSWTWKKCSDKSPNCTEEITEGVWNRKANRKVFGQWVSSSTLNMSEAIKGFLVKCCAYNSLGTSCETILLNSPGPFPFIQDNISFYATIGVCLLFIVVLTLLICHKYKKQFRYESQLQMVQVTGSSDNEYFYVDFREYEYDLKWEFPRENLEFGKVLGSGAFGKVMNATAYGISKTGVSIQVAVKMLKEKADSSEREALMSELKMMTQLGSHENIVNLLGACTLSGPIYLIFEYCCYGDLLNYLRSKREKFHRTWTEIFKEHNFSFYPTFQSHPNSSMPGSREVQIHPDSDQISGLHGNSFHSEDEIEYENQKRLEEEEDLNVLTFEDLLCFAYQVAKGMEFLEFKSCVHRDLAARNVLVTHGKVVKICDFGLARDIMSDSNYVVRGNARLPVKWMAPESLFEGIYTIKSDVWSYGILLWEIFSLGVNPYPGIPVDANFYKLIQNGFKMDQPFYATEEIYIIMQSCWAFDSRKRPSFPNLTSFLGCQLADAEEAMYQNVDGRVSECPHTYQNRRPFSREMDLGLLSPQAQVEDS
Experimental: Kinase activity was measured in a microfluidics assay that monitors the separation of a phosphorylated product from substrate[31],[32]. […] After, 1 μL was transferred into a 384-well polypropylene assay plate (Greiner, Frickenhausen, Germany). The FLT3 enzyme (Invitrogen™, Grand Island, USA) was diluted in kinase buffer to a concentration of 2 nM and 5 µL of the enzyme mixture was transferred to the assay plate. The inhibitors/FLT3 enzyme were incubated for 60 minutes with minor shaking. […] For positive control, no inhibitor was added. For negative control, no enzyme was added. For running control, quizartinib was utilized. The plate was run until 10–20% conversion based on the positive control wells. The following separation conditions were utilized: upstream voltage −500V; downstream voltage, −1900V; chip pressure −0.8. Percent inhibition was measured for each well comparing starting peptide to phosphorylated product peaks relative to the baseline. Dose response curves, spanning the IC50 dose, were generated in GraphPad Prisim 6 and fit to an exponential one-phase decay line and IC50 values were obtained from the half-life value of the curve. IC50 values were generated in duplicate and error was calculated from the standard deviation between values.
S10. Biochemical Inhibition Assay:1,2 Kinase activity was measured in a microfluidics assay that monitors the separation of a phosphorylated product from substrate. The assay was run using a 12-sipper chip on a Caliper EZ Reader II (PerkinElmer®, Walthman, USA) with separation […]
Walthman, USA]). In 96-well polypropylene plates (Greiner, Frickenhausen, Germany) […]
After, 1 μL was transferred into a 384-well polypropylene assay plate (Greiner, Frickenhausen, Germany). The FLT3 enzyme (Invitrogen™, Grand Island, USA) was diluted in kinase buffer to a concentration of 2 nM and 5 µL of the enzyme mixture was transferred to the assay plate. The inhibitors/FLT3 enzyme were incubated for 60 minutes with minor shaking. A substrate mix was prepared containing ATP (Ambresco®, Solon, USA) and […]
USA) dissolved in kinase buffer, and 5 µL of the substrate mix was added to the assay plate.
For positive control, no inhibitor was added. For negative control, no enzyme was added. For running control, quizartinib was utilized. The plate was run until 10-20% conversion based on the positive control wells. The following separation conditions were utilized: upstream voltage -500V; downstream voltage, -1900V; chip pressure - 0.8. Percent inhibition was measured for each well comparing starting peptide to phosphorylated product peaks relative to the baseline. Dose response curves, spanning the IC50 dose, were generated in GraphPad Prisim 6 and fit to an exponential one-phase decay line and IC50 values were obtained from the half-life value of the curve. IC50 values were generated in duplicate and error was calculated from the standard deviation between values. […]

[2] = system: Ba/F3 FLT3-ITD; test: Cell proliferation (CellTiter-Glo, 48 h), Ba/F3 FLT3-ITD; type: cell-based
From the text: (§1) Stable BaF3 populations expressing activated FLT3 were generated by retroviral spinfection with the appropriate mutated plasmid followed by selection and growth factor withdrawal as previously described. The BaF3 cell line was originally obtained from the laboratory of Charles Sawyers and has not been authenticated. MV411 and Molm14 cells were obtained from the laboratory of Scott Kogan and authenticated by Promega STR analysis in June 2013. All cell lines were mycoplasma-free. Cells were incubated with compounds for 48 hours and proliferation was assessed using CellTiter-Glo (Promega; Madison, WI) according to the manufacturer’s recommendation on a SpectraMax M3 microplate reader using SpectraMax Software (Molecular Devices; Sunnyvale, CA). All cell viability data shown is reflective of experiments performed a minimum of three times. […]
(§2) S13. Cell Cultures: Stable BaF3 populations expressing activated FLT3 were generated by retroviral spinfection with the appropriate mutated plasmid followed by selection and growth factor withdrawal as previously described .4 The BaF3 cell line was originally obtained from the laboratory of Charles Sawyers and has not been authenticated. MV411 and Molm14 cells were obtained from the laboratory of Scott Kogan and authenticated by Promega STR analysis in June
(§3) 2013. All cell lines were mycoplasma -free. Cells were incubated with compounds for 48 hours and proliferation was assessed using CellTiter -Glo (Promega; Madison, WI) according to the manufacturer’s recommendation on a SpectraMax M3 microplate reader using SpectraMax Software (Molecular Devices; Sunnyvale, CA). All cell viability data shown is reflective of experiments performed a minimum of three times.

[3] = system: Molm14 par; test: Cell proliferation (CellTiter-Glo, 48 h), Molm14 par; type: cell-based; details: Homo sapiens, MOLM-14
From the text: as §1, §2, §3

[4] = system: Molm14^D835Y; test: Cell proliferation (CellTiter-Glo, 48 h), Molm14 D835Y; type: cell-based; details: Homo sapiens, MOLM-14; Molm14^D835Y, 48 hours
From the text: as §1, §2, §3

[5] = system: Molm14^F691L; test: Cell proliferation (CellTiter-Glo, 48 h), Molm14 F691L; type: cell-based; details: Homo sapiens, MOLM-14; Molm14^F691L, 48 hours
From the text: as §1, §2, §3

[6] = system: MV4–11 AML cells; test: Cell proliferation (CellTiter-Glo, 48 h), MV4-11; type: cell-based; details: Homo sapiens; MV4–11, 48 hours
From the text: as §1, §2, §3

[7] = system: FLT3-driven cell lines; test: Cell-based studies, FLT3-driven cell lines overall; details: result in words
From the text: as §1
S13. […]
2013. […] Cells were incubated with compounds for 48 hours and proliferation was assessed using CellTiter -Glo (Promega; Madison, WI) according to the manufacturer’s recommendation on a SpectraMax M3 microplate reader using SpectraMax Software (Molecular Devices; Sunnyvale, CA). […]

IC50 [1] [nM]	LE [1]	GI50 [2] [nM]	GI50 [3] [nM]	GI50 [4] [nM]	GI50 [5] [nM]	GI50 [6] [nM]	melting point [°C]	SMILES	inhibition of FLT3-driven cellular growth [7]
37.5 ± 13	0.35	158	187	2230	1350	80.6	194 to 196	CNc1cc(Nc2ccc(CC(=O)Nc3cc(C(C)(C)C)nn3C)cc2)ncn1 [13b, 2-(4-(6-(Methylamino)pyrimidin-4-ylamino)phenyl)-N-(3-tert-butyl-1-methyl-1H-pyrazol-5-yl)acetamide]	
377 ± 20	0.24					2250		Cn1nc(C(C)(C)C)cc1NC(=O)Cc1ccc(Nc2cc(NCCCN3CCCC3)ncn2)cc1 [13d, 2-(4-(6-(3-(Pyrrolidin-1-yl)propylamino)pyrimidin-4-ylamino)phenyl)-N-(3-tert-butyl-1-methyl-1H-pyrazol-5-yl)acetamide]	failed to effectively inhibit FLT3-driven cellular growth
411 ± 236	0.30	266	187	2230	1350	80.6	216 to 218	CNc1cc(Nc2ccc(CC(=O)Nc3cccc(C(F)(F)F)c3)cc2)ncn1 [13r, 2-(4-(6-(Methylamino)pyrimidin-4-ylamino)phenyl)-N-(3-(trifluoromethyl)phenyl) acetamide]	
2120 ± 401	0.27	> 10000	> 10000	> 10000	> 10000	> 10000	220 to 222	CNc1cc(Nc2ccc(CC(=O)Nc3ccc(S(C)(=O)=O)cc3)cc2)ncn1 [13v, 2-(4-(6-(methylamino)pyrimidin-4-ylamino)phenyl)-N-(4-(methylsulfonyl)phenyl) acetamide]	

Source: PMC5829162, “Rational Design, Synthesis and Biological Evaluation of Pyrimidine-4,6-diamine derivatives as Type-II inhibitors of FLT3 Selective Against c-KIT” (Scientific Reports, 2018)
